According to PubChem BioAssay (NCI):
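The compound was tested at five concentrations on cells cultured in 96-well plates, with a 48-hour exposure period. TGI: concentration producing complete growth inhibition.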

How the values were obtained:
Experiment in all cases: NCI anticancer screen, dose series, 48 h
OVCAR-8 ovarian = tested on: OVCAR-8 ovarian
T-47D breast = tested on: T-47D breast
SK-MEL-28 melanoma = tested on: SK-MEL-28 melanoma
SK-MEL-5 melanoma = tested on: SK-MEL-5 melanoma
NCI-H226 lung = tested on: NCI-H226 lung
OVCAR-3 ovarian = tested on: OVCAR-3 ovarian
HCT-116 colon = tested on: HCT-116 colon
OVCAR-4 ovarian = tested on: OVCAR-4 ovarian
U251 CNS = tested on: U251 CNS
UACC-257 melanoma = tested on: UACC-257 melanoma
NCI-H460 lung = tested on: NCI-H460 lung
OVCAR-5 ovarian = tested on: OVCAR-5 ovarian
RXF 393 renal = tested on: RXF 393 renal
SNB-19 CNS = tested on: SNB-19 CNS
MOLT-4 leukemia = tested on: MOLT-4 leukemia
SF-295 CNS = tested on: SF-295 CNS
IGROV1 ovarian = tested on: IGROV1 ovarian
K-562 leukemia = tested on: K-562 leukemia
UO-31 renal = tested on: UO-31 renal
HS 578T breast = tested on: HS 578T breast

Compound	TGI (OVCAR-8 ovarian)	TGI (T-47D breast)	TGI (SK-MEL-28 melanoma)	TGI (SK-MEL-5 melanoma)	TGI (NCI-H226 lung)	TGI (OVCAR-3 ovarian)	TGI (HCT-116 colon)	TGI (OVCAR-4 ovarian)	TGI (U251 CNS)	TGI (UACC-257 melanoma)	TGI (NCI-H460 lung)	TGI (OVCAR-5 ovarian)	TGI (RXF 393 renal)	TGI (SNB-19 CNS)	TGI (MOLT-4 leukemia)	TGI (SF-295 CNS)	TGI (IGROV1 ovarian)	TGI (K-562 leukemia)	TGI (UO-31 renal)	TGI (HS 578T breast)
CCCCC(C(=O)NCCNC(=O)CCC(=O)N(C)O)C(=O)NCCNC(=O)CCC(=O)N(C)O	> 100 µM	> 100 µM	> 100 µM	> 100 µM	> 100 µM	> 100 µM	> 100 µM	> 100 µM	> 100 µM	> 100 µM	> 100 µM	> 100 µM	> 100 µM	> 100 µM	> 100 µM	> 100 µM	> 100 µM	> 100 µM	> 100 µM	
COc1cc(NS(C)(=O)=O)ccc1Nc1cc(C)[nH]c2ccc3nccc3c12	> 100 µM	> 100 µM	> 100 µM	> 100 µM	> 100 µM	> 100 µM	> 100 µM	> 100 µM	> 100 µM	> 100 µM	> 100 µM	> 100 µM		> 100 µM		> 100 µM	> 100 µM	> 100 µM	> 100 µM	> 100 µM
Cc1nc(N)c(N2CCN([N+](=O)[O-])CC2)c(=O)[nH]1	> 100 µM	> 100 µM	> 100 µM		> 100 µM	> 100 µM	> 100 µM	> 100 µM	> 100 µM	> 100 µM	> 100 µM	> 100 µM		> 100 µM	> 100 µM	> 100 µM		> 100 µM	> 100 µM	> 100 µM
Oc1ccc([I+]c2ccccc2)cc1O	> 100 µM		> 100 µM	> 100 µM	> 100 µM	> 100 µM	> 100 µM	> 100 µM	> 100 µM	> 100 µM	> 100 µM	> 100 µM	> 100 µM	> 100 µM	85.3 µM	> 100 µM	> 100 µM	54.3 µM	> 100 µM	> 100 µM
CCN(CC)/C(SCc1ccccc1)=C(\C(Cl)=C(Cl)Cl)[N+](=O)[O-]	31.7 µM	86.7 µM	33.9 µM	30.5 µM	39.1 µM	24.3 µM	28.2 µM	44.6 µM	49 µM	31.8 µM	55.1 µM	41.2 µM	26.6 µM	97.5 µM	44.5 µM	> 100 µM	33.8 µM	> 100 µM	38.9 µM	
CCOC(=O)c1c(C)nc2c3ccccc3c(C#N)c(C)n12	> 100 µM		> 100 µM	> 100 µM	> 100 µM	> 100 µM	> 100 µM	> 100 µM	> 100 µM	> 100 µM	> 100 µM	> 100 µM	> 100 µM	> 100 µM	> 100 µM	> 100 µM	> 100 µM	> 100 µM	> 100 µM	> 100 µM
CCCC(=O)OC1CC(n2cc(F)c(=O)[nH]c2=O)OC1COP(=O)(OCC(Cl)(Cl)Cl)OCC(Cl)(Cl)Cl (configuration not stated)	> 100 µM	> 31.6 µM	> 62.4 µM	> 100 µM	> 100 µM	38.8 µM	> 51.1 µM	> 100 µM	> 78.8 µM	> 92 µM	28.8 µM	> 100 µM		> 100 µM	> 62.1 µM	16.8 µM	> 31.6 µM		> 100 µM	76.3 µM
COc1ccc2c(c1)OCC1Cc3ccccc3OC21 (configuration not stated)	> 100 µM	> 100 µM		> 10 µM	> 100 µM	> 100 µM	> 100 µM		> 10 µM	> 100 µM		> 100 µM			> 100 µM	> 100 µM	> 100 µM	> 100 µM	> 100 µM	
COc1cccc(CCCNC(=O)Cc2cc(OC)c(OC)cc2CO)c1	> 100 µM	> 100 µM	> 100 µM	> 100 µM	> 100 µM	> 100 µM	> 100 µM	> 100 µM	> 100 µM	> 100 µM	> 100 µM	> 100 µM		> 100 µM	> 100 µM		> 100 µM	> 100 µM	> 100 µM	> 100 µM
O=C1NCCN1/N=C/c1c(Cl)n(-c2ccccc2)c2ccccc12	44.8 µM	41 µM		29.3 µM	54 µM	> 100 µM	45.6 µM	76.2 µM	58.3 µM	58.5 µM		> 100 µM		56.9 µM	> 100 µM	> 100 µM	41.7 µM	68.1 µM	46.3 µM	43.8 µM
CCOC(=O)c1cn2c(nc1=O)N[C@H]1CCCC[C@@H]12	> 100 µM	> 100 µM	> 100 µM	> 100 µM	> 100 µM	> 100 µM	> 100 µM	> 100 µM	> 100 µM	> 100 µM	> 100 µM	> 100 µM		> 100 µM	> 100 µM	> 100 µM	> 100 µM	> 100 µM	> 100 µM	> 100 µM
O=c1c2sc(=S)n(-c3ccc(F)cc3)c2ncn1/N=C/c1ccc(F)cc1F	44.9 µM		> 100 µM	> 100 µM	87 µM	61.5 µM	> 100 µM	46.8 µM	52 µM	> 100 µM	> 100 µM	> 100 µM	45.5 µM	62.6 µM		65.8 µM	89.1 µM	> 100 µM	89.8 µM	76.3 µM
c1c[nH]c(-c2ccc(-c3ccc[nH]3)c3nsnc23)c1	> 60.4 µM		> 100 µM	> 100 µM	> 100 µM	95.4 µM	> 59.8 µM	> 16.5 µM	> 66.5 µM	> 100 µM	> 100 µM	> 96.1 µM	> 66.8 µM	> 100 µM	> 45.8 µM	> 100 µM	> 100 µM	> 49.1 µM	> 74.7 µM	> 100 µM
COc1ccc(-c2nc(SCC(=O)N/N=C/c3ccc(N(C)C)cc3)[nH]c2-c2ccc(OC)cc2)cc1	> 100 µM	> 100 µM	> 100 µM	> 100 µM		> 100 µM	> 100 µM	> 100 µM	> 100 µM	> 100 µM	> 100 µM	> 100 µM	> 100 µM	> 100 µM		> 100 µM	> 100 µM	> 100 µM	> 100 µM	
CN(C)C1(N(C)C)Oc2c(c(=O)n(C)c(=O)n2C)C(c2ccc(Br)cc2)C1(F)F (configuration not stated)		> 100 µM	> 100 µM	> 100 µM	> 100 µM	> 100 µM	> 100 µM	> 100 µM	> 100 µM	> 100 µM	> 100 µM	> 100 µM	> 100 µM	> 100 µM	> 100 µM	> 100 µM			> 100 µM	
COc1cc(/C=C/C(=O)CC(=O)/C=C/c2ccc(OC(=O)CCCCC3CCSS3)c(OC)c2)ccc1OC(=O)CCCCC1CCSS1 (configuration not stated)	> 100 µM		> 100 µM	> 100 µM	> 100 µM	> 100 µM	> 100 µM	> 100 µM	> 100 µM	> 100 µM	> 100 µM	> 100 µM	> 100 µM	> 100 µM	> 100 µM	> 100 µM	> 100 µM	> 100 µM	> 100 µM	> 100 µM
CCCSCC(P(=O)(O)O)P(=O)(O)O	> 100 µM		> 100 µM	> 100 µM	> 100 µM	> 86.9 µM	> 100 µM	> 100 µM	> 100 µM	> 100 µM	> 100 µM	> 100 µM	> 100 µM	> 100 µM	> 100 µM	> 100 µM	> 100 µM	> 100 µM	> 100 µM	
O=c1[nH]c(Nc2nc3ccccc3[nH]2)nc(O)c1-c1ccccc1	> 100 µM		> 100 µM	> 100 µM	> 100 µM	> 100 µM	> 100 µM	> 100 µM	> 100 µM	> 100 µM	> 100 µM	> 100 µM	> 100 µM	> 100 µM		> 100 µM	> 100 µM	> 100 µM	> 100 µM	> 100 µM
CCCCCCOc1ccc(C(=O)NOC)cc1	> 100 µM		> 100 µM	> 100 µM	> 100 µM	> 100 µM	> 100 µM	> 100 µM	> 100 µM	> 100 µM	> 100 µM	> 100 µM	> 100 µM	> 100 µM	> 100 µM	> 100 µM	> 100 µM	> 100 µM	> 100 µM	> 100 µM
CC1=NS(=O)(=O)c2ccccc2N1	> 100 µM		> 100 µM	> 100 µM	> 100 µM	> 100 µM	> 100 µM	> 100 µM	> 100 µM	> 100 µM	> 100 µM	> 100 µM	> 100 µM	> 100 µM	> 100 µM	> 100 µM	> 100 µM	> 100 µM	> 100 µM	
CCOC(=O)Cn1c(=O)c2nc(SC)sc2n(-c2ccccc2)c1=O	> 100 µM		> 100 µM	> 100 µM	> 100 µM		> 100 µM		> 100 µM	> 100 µM	> 100 µM	> 100 µM	> 100 µM	> 100 µM	> 100 µM		> 100 µM	> 100 µM	> 100 µM	> 100 µM
CCOP(=O)(OCC)C(c1ccc(F)cc1)N(C(=O)NC(F)(F)F)c1ccc(OC)cc1 (configuration not stated)	> 100 µM		> 100 µM	> 100 µM	> 100 µM	> 100 µM	> 100 µM		> 100 µM	> 100 µM	> 100 µM	> 100 µM	> 100 µM	> 100 µM	> 100 µM	> 100 µM	> 100 µM	> 100 µM	> 100 µM	> 100 µM
N#Cc1c(-c2ccccc2)/c(=C\Nc2ccc(F)cc2)c(=O)n2c1nc1ccccc12	> 100 µM	> 100 µM	> 100 µM	> 100 µM	64.1 µM	48.2 µM	> 100 µM	> 100 µM	> 100 µM	> 100 µM	> 100 µM	> 100 µM	52.3 µM	> 100 µM		> 100 µM	87.3 µM		45.6 µM	
OCCc1ccsc1-c1sc(-c2cc(CCO)c(-c3sccc3CCO)s2)cc1CCO	29.5 µM		41.4 µM	52.9 µM		32.5 µM	43.8 µM	34 µM	49 µM	34.4 µM	32.5 µM	32.4 µM	9.05 µM	36.5 µM	> 100 µM	30.3 µM	29.5 µM	> 100 µM	31.4 µM	
CCNC(=O)Cc1nc2c(N)ncnc2n1C1OC(CO)C(O)C1O (configuration not stated)	> 100 µM	> 100 µM	> 100 µM	> 100 µM	> 100 µM	> 100 µM	> 100 µM	> 100 µM	> 100 µM	> 100 µM	> 100 µM			> 100 µM	> 100 µM	> 100 µM	> 100 µM	> 100 µM	> 100 µM	> 100 µM
COc1ccc2c(C)cc(=O)oc2c1OC	> 100 µM		> 100 µM	> 100 µM	> 100 µM	> 100 µM	> 100 µM	> 100 µM	> 100 µM	> 100 µM		> 100 µM		> 100 µM	> 100 µM	> 100 µM	> 100 µM	> 100 µM	> 100 µM	> 100 µM
